According to patent publication US4885239A, “Rapid differentiation of bacteria using polyether antibiotics” (Eastman Kodak Company, priority 1986, dated 1989):

Columns and labels:
S. aureus (gram +) = experiment: change in optical density with tetrazolium salt MTT (Example 5), S. aureus; format: cell-based, Staphylococcus aureus (ATCC 25923); conditions: 540 nm, 37° C., without antibiotic 0.505
Procedure: (§1) gram-negative bacteria Enterobacter cloacae (ATCC 23355), Escherichia coli (ATCC 25922), Proteus vulgaris (ATCC 13315), Klebsiella pneumoniae (ATCC 13883) and Pseudomonas aeruginosa (ATCC 27853), and gram-positive bacteria Staphylococcus aureus (ATCC 25923) and Streptococcus pyogenes (ATCC 19615), and brain heart infusion (BHI) broth from Difco Laboratories (Detroit, Mich.),
(§2) Bacterial suspensions were prepared by growing the cells in BHI to stationary phase overnight at 37° C. P. aeruginosa was grown with agitation. About 40 ml of overnight cultures were centrifuged, decanted and washed once with 0.05 molar potassium phosphate buffer or 0.05 molar N-2-hydroxyethylpiperazine-N'-2-ethanesulfonic acid (HEPES) buffer, pH 7.8, and resuspended in buffer.
(§3) The reducible compound solution was prepared with 3-(4,5-dimethyl-2-thiazolyl)-2,5-diphenyl-2H-tetrazolium bromide (MTT) (200 μl of 5 mg/ml methanol), 200 μl glucose solution (10% in water), 200 μl trimethyl-1,4-benzoquinone ETA (1.5 mg/ml methanol) and 12 ml of HEPES buffer (0.05 molar, pH 7.8).
(§4) Test solutions were prepared with the following: 50 μl HEPES buffer, 50 μl polyether antibiotic A23187 (free acid, 0.01 molar in methanol), 10 μl calcium chloride (1 molar) (serial dilutions of buffer and antibiotic were performed to obtain various antibiotic concentrations), 50 μl of the appropriate cell suspension, E. coli (about 10^8 cells/ml) or S. aureus (about 10^8 cells/ml), and 200 μl of the MTT solution. Control solutions were prepared as described in previous Examples.
(§5) Optical density measurements were obtained at 540 nm using a standard spectrophotometer and the change in optical density (ΔOD) was determined after 30 minutes at 37° C. The resulting data are shown in Table VII below for several concentrations of antibiotic. It is clear from the data that the composition of this example was useful for differentiating bacteria.

E. coli (gram -) = experiment: change in optical density with tetrazolium salt MTT (Example 5), E. coli; format: cell-based, Escherichia coli (ATCC 25922); conditions: 540 nm, 37° C., without antibiotic 0.643
Procedure: as §1, §2, §3, §4, §5

P. aeruginosa = experiment: dye formation from RIND VII in presence of calimycin, P. aeruginosa; format: cell-based, Pseudomonas aeruginosa (ATCC 27853); parameters: key: 0: no dye formation; +/-: faint dye formation; 1+: light dye formation; 2+: moderate dye formation; 3+: strong dye formation; 4+: very strong dye formation; conditions: calimycin 10^-3 molar, calcium chloride, 10% yeast extract instead of glucose
Procedure: as §1
Bacterial suspensions were prepared by growing the cells in BHI to stationary phase overnight at 37° C. P. aeruginosa was grown with agitation. […]
TERGITOL 7 anionic surfactant was used to differentiate viable bacteria according to the prior art method. […] The amount of dye formed was then determined visually and graded as follows: 0 indicates no dye formation, +/- indicates faint dye formation, 1+ indicates light dye formation, 2+ indicates moderate dye formation, 3+ indicates strong dye formation, and 4+ indicates very strong dye formation.
Calimycin, a polyether antibiotic, was similarly used with RIND VII in the differentiation of bacteria. Assays were performed as described above, except that 25 μl of 1 molar calcium chloride solution was added to each test solution and the P. aeruginosa response was measured in the presence of 10% yeast extract as the carbon source instead of glucose. […]

For `CNc1ccc2oc(C[C@H]3O[C@@]4(CC[C@H]3C)O[C@H]([C@H](C)C(=O)c3ccc[nH]3)[C@H](C)C[C@H]4C)nc2c1C(=O)O` [calimycin, Calimycin], the “Δ OD after 30 Min.” value (S. aureus (gram +); antibiotic 1 × 10^-4 molar) was 0.089, the “Δ OD after 30 Min.” value (S. aureus (gram +); antibiotic 2 × 10^-4 molar) was 0.096 and the “Δ OD after 30 Min.” value (S. aureus (gram +); antibiotic 4 × 10^-4 molar) was 0.065. The “Δ OD after 30 Min.” value (S. aureus (gram +); antibiotic 8 × 10^-4 molar) was 0.028, the “Δ OD after 30 Min.” value (E. coli (gram -); antibiotic 1 × 10^-4 molar) was 0.503 and the “Δ OD after 30 Min.” value (E. coli (gram -); antibiotic 2 × 10^-4 molar) was 0.529. The “Δ OD after 30 Min.” value (E. coli (gram -); antibiotic 4 × 10^-4 molar) was 0.512, the “Δ OD after 30 Min.” value (E. coli (gram -); antibiotic 8 × 10^-4 molar) was 0.413 and the dye formation (P. aeruginosa; 15 Minutes) was 2+. The dye formation (P. aeruginosa; 30 Minutes) was 4+.
